Experiment in all cases: NCI-60 cell line screen, 48 h
Assay [1] concerns OVCAR-8.
Assay [2] concerns A498.
In assay [3] the test system is SN12C.
In assay [4] the test system is ACHN.
The test system of assay [5] is SK-MEL-28.
Assay [6] has as its system SK-OV-3.
Assay [7] concerns UACC-62.
Assay [8] relates to SF-295.
Assay [9] has as its system NCI-H460.
The test system of assay [10] is SK-MEL-5.
The subject of assay [11] is M14.
Assay [12] has as its system CAKI-1.
Assay [13] concerns HT-29.
In assay [14] the test system is HL-60.
For assay [15], the system named is SF-268.
The subject of assay [16] is OVCAR-5.
Assay [17] deals with KM12.
The test system of assay [18] is SR.

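Step 1: Grow cells in 96-well plates. Step 2: Expose to compound for 48 hours at 5 concentrations. Step 3: Interpolate endpoints linearly; if unreached, use highest concentration. GI50 is the concentration that inhibits growth by half.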 Activity calls are given as the source filed them. Cut-off read from the data, not from the text of the source: active = GI50 up to about 1.1 µM and inactive = higher. A value given as a limit tells only on which side of the number the result lay.

As for `COc1ccc2c(c1OCC(=O)O)C(=O)C(CCC(=O)O)CC2` (stereo not drawn), the GI50 in [1], in assay [2], in [3], in assay [4], in assay [5] and in [6] was > 100 µM (inactive) in each case. In addition, the GI50 in [7], in assay [8], in assay [9], in assay [10], in assay [11] and in assay [12] was > 100 µM (inactive) in each case. Further, the GI50 in assay [13] and in [14] was > 100 µM (inactive) throughout.
On to `Cc1nn(C)c(=S)n(C)c1=O`, for which the GI50 in assay [1] was 0.571 µM (active); in [2], 3.22 µM (inactive); in assay [3] it was 0.927 µM (active); in assay [4] it was 0.387 µM (active); in assay [5], 0.571 µM (active); in [6], 14.7 µM (inactive). For the same molecule, the GI50 in assay [7] is 0.757 µM (active); in [8] it was 0.571 µM (active); in assay [9] it was 0.394 µM (active); in assay [15], 0.56 µM (active); in assay [16] it was 2.26 µM (inactive); in [11], 0.773 µM (active). For the same molecule, the GI50 is 24.8 µM (inactive) in assay [13] and 1.31 µM (inactive) in [14].
As for `C/C(CC(=O)Nc1ccc(Cl)cc1)=N\NC(N)=S`, the GI50 in assay [1] is > 100 µM (inactive); in assay [2], > 100 µM (inactive); in assay [4], 9.14 µM (inactive); in assay [5], > 100 µM (inactive); in assay [6], > 100 µM (inactive); in assay [7], 4.95 µM (inactive). The GI50 in assay [8] was 29 µM (inactive); in assay [9], 45.5 µM (inactive); in assay [15], 54 µM (inactive); in assay [16], > 100 µM (inactive); in assay [10], 26.1 µM (inactive); in [11], 6.47 µM (inactive). Moreover, the GI50 in assay [13] is > 100 µM (inactive); in assay [17] it was 21.4 µM (inactive); in assay [14], 12.8 µM (inactive).
On to `COc1cccc(NC(=O)CSc2nnc(-c3ccc(/N=C\c4ccc(Cl)cc4)cc3)o2)c1`, for which the GI50 in assay [1] was 24.4 µM (inactive); in [18], 28.2 µM (inactive); in assay [3] it was 21.2 µM (inactive); in assay [4] it was 16.4 µM (inactive); in assay [5] it was 18.3 µM (inactive); in [6] it was 33.3 µM (inactive). For the same molecule, the GI50 in assay [7] was 14.3 µM (inactive); in assay [8] it was 20.2 µM (inactive); in assay [9], 20.1 µM (inactive); in assay [15], 19.4 µM (inactive); in [10], 18.6 µM (inactive); in assay [11], 19.4 µM (inactive). For the same molecule, the GI50 in assay [13] was 15.6 µM (inactive); in assay [17], 14.2 µM (inactive); in assay [14] it was 27.7 µM (inactive).
Consider `CC(=O)Nc1ccc(C(=O)N2N=C(C)/C(=C/c3ccccc3O)C2=O)cc1`, for which the GI50 in assay [1], in assay [18], in assay [3], in assay [4], in assay [5] and in [8] was > 100 µM (inactive) each time. In addition, the GI50 in assay [9], in [15], in [16], in assay [10], in assay [11] and in [12] was > 100 µM (inactive) throughout. In addition, the GI50 in assay [13], in [17] and in [14] was > 100 µM (inactive) in each case.
Take `CCCC/C=C/C1Cc2ccccc2CN1S(=O)(=O)c1ccc(C)cc1` (stereo not drawn): the GI50 in assay [1] is 11.3 µM (inactive); in [18] it was 2.77 µM (inactive); in assay [3] it was 10.6 µM (inactive); in assay [4] it was 5.24 µM (inactive); in [5], 10.5 µM (inactive); in [6], 26.6 µM (inactive). The GI50 in assay [7] was 12.7 µM (inactive); in [8] it was 13.9 µM (inactive); in [9], 12.7 µM (inactive); in [15], 10.2 µM (inactive); in assay [16], 12.5 µM (inactive); in assay [10], 3.28 µM (inactive). Further, the GI50 is 11.4 µM (inactive) in [11], 7.8 µM (inactive) in assay [13], 9.91 µM (inactive) in [17] and 1.84 µM (inactive) in [14].
As for `NCCn1cnc2nc(NC(=O)c3ccccc3)[nH]c(=O)c21`, the GI50 in assay [1], in [2], in assay [18], in assay [3], in [4] and in [5] was > 100 µM (inactive) throughout. The GI50 in assay [8], in [9], in assay [15], in assay [16], in assay [13] and in [17] was > 100 µM (inactive) throughout. Further, in assay [14], the GI50 is > 100 µM (inactive).
As for `CCCCCCCCCCCCCc1nnn[nH]1`, the GI50 in assay [1] is 29.9 µM (inactive); in assay [2], 17 µM (inactive); in assay [3], 18.8 µM (inactive); in assay [4] it was 19.1 µM (inactive); in assay [5] it was 17.8 µM (inactive); in assay [6] it was 24.7 µM (inactive). The GI50 in assay [7] was 18 µM (inactive); in [8] it was 19.2 µM (inactive); in assay [9], 20.6 µM (inactive); in [15] it was 19.6 µM (inactive); in [16], 18.5 µM (inactive); in [10], 17.7 µM (inactive). The GI50 was 17.5 µM (inactive) in [11], 18 µM (inactive) in assay [13], 18.3 µM (inactive) in [17] and 18.1 µM (inactive) in assay [14].
Regarding `Cc1ccc(S(=O)(=O)c2ccc(N)cc2)cc1`, the GI50 in [1], in [2], in assay [4], in assay [5], in assay [6] and in [7] was > 100 µM (inactive) throughout. Also, the GI50 in assay [8] is > 100 µM (inactive); in assay [9], > 100 µM (inactive); in assay [16] it was > 100 µM (inactive); in assay [10], > 100 µM (inactive); in assay [11], > 100 µM (inactive); in assay [12], 97.9 µM (inactive). In addition, the GI50 in [13] was > 100 µM (inactive); in [17], 47.6 µM (inactive); in [14], > 100 µM (inactive).
In the case of `CC(C)(C)OC(=O)NCC(=O)OCc1ccccc1`, the GI50 in assay [1], in [2], in [3], in assay [4], in [5] and in [6] was > 100 µM (inactive) throughout. For the same molecule, the GI50 in [7], in assay [8], in [9], in assay [15], in assay [16] and in [11] was > 100 µM (inactive) each time. The GI50 was > 10 µM (inactive) in [12], > 100 µM (inactive) in [13], > 100 µM (inactive) in [17] and > 100 µM (inactive) in [14].
Turning to `CC(=O)Oc1ccc2c(=O)c(C(C)=O)coc2c1`, the GI50 was > 100 µM (inactive) in [1]; 58.1 µM (inactive) in assay [2]; > 100 µM (inactive) in assay [18]; > 100 µM (inactive) in assay [4]; > 100 µM (inactive) in [5]; > 100 µM (inactive) in assay [8]. For the same molecule, the GI50 in [9], in assay [15], in assay [16], in [10], in [11] and in [12] was > 100 µM (inactive) throughout. Also, the GI50 in assay [13], in assay [17] and in assay [14] was > 100 µM (inactive) in each case.
As for `c1nc2cscc2c2cscc12`, the GI50 in assay [1], in assay [2], in [18], in [3], in assay [4] and in [5] was > 100 µM (inactive) throughout. Further, the GI50 was 37 µM (inactive) in assay [6]; > 100 µM (inactive) in assay [7]; > 100 µM (inactive) in assay [8]; > 100 µM (inactive) in assay [9]; > 100 µM (inactive) in [15]; > 100 µM (inactive) in assay [16]. Besides, the GI50 in assay [11] was > 100 µM (inactive); in [12], 42.8 µM (inactive); in assay [13], > 100 µM (inactive); in assay [17], > 100 µM (inactive); in assay [14] it was > 100 µM (inactive).
As to `CCOC(=O)c1oc2c(OC)cc(Cl)c3c2c1CCC3`, the GI50 in [1] was 35.4 µM (inactive); in [2], 69.8 µM (inactive); in [18], > 100 µM (inactive); in assay [3], 64.7 µM (inactive); in assay [4], 30.3 µM (inactive); in assay [5] it was 58.3 µM (inactive). Besides, the GI50 in assay [6] was 50.8 µM (inactive); in assay [7] it was > 100 µM (inactive); in [8], 58.1 µM (inactive); in assay [9] it was > 100 µM (inactive); in [15] it was > 100 µM (inactive); in assay [16], > 100 µM (inactive). Besides, the GI50 in [10], in [11], in assay [13], in assay [17] and in assay [14] was > 100 µM (inactive) each time.

Values taken from ChEMBL document CHEMBL1201862, “PubChem BioAssay data set” (2004).
